# Read-outs that look alike come from different tables or passages of the source.
# Assays:
# [1] = target: Sigma-1 receptors on Jurkat cell membranes (Homo sapiens (Human), UniProt Q99720); assay: Competitive Radioligand Binding Assay 1, Sigma-1 binding ([3H](+)pentazocine displacement); settings: sigma-1 receptor affinity; read-out: S1 Ki
# Procedure: Certain compounds were tested for interaction with several receptors by blocking the binding or action of their agonists or antagonists. Some compounds were tested to see whether they interact directly with known cellular receptor or signaling proteins. Compounds can be tested for the ability to displace binding of known agonists or antagonists of a given human receptor that was overexpressed in cell lines or isolated from tissue. Compounds can also be tested for the ability to block downstream signaling induced by agonists or antagonists of a given human receptor. Compounds can be tested for action at 100 known receptors, and it is desirable that specific activity will occur at only a small subset of CNS-relevant receptors.
# For Sigma-1 binding, various concentrations of test compounds from 100 μM to 1 nM were used to displace 8 nM [3H](+)pentazocine from endogenous receptors on Jurkat cell membranes (Ganapathy M E et al. 1991, J Pharmacol. Exp. Ther. 289:251-260). 10 μM Haloperidol was used to define non-specific binding. […] (Bowen W D, et al. 1993, Mol. Neuropharmcol 3:117-126). 10 μM Haloperidol was used to define non-specific binding. Reactions were terminated by rapid filtration through Whatman GF/C filters using a Brandel 12R cell harvester followed by two washes with ice-cold buffer. Radioactivity on the dried filter discs was measured using a liquid scintillation analyzer (Tri-Carb 2900TR; PerkinElmer Life and Analytical Sciences). The displacement curves were plotted and the Ki values of the test compounds for the receptor subtypes were determined using GraphPad Prism (GraphPad Software Inc., San Diego, Calif.). The percentage specific binding was determined by dividing the difference between total bound (disintegrations per minute) and nonspecific bound (disintegrations per minute) by the total bound (disintegrations per minute). […]
# [2] = target: Sigma-2 receptors on membranes from rat cerebral cortex (Rattus norvegicus (Rat), UniProt Q5U3Y7); assay: Competitive Radioligand Binding Assay 1, Sigma-2 binding ([3H]DTG displacement with (+)pentazocine mask); settings: sigma-2 receptor affinity; read-out: S2 Ki
# Sigma-2 receptors on membranes from rat cerebral cortex, sequence (Q5U3Y7 whole entry): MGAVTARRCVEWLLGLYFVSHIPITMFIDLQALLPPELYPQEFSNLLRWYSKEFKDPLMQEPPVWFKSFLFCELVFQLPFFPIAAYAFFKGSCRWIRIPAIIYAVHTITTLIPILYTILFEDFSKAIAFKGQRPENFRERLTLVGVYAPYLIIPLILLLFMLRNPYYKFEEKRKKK
# Outline: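 Displacement of [3H]DTG by test compounds from rat cerebral cortex membranes in presence of 300 nM (+)pentazocine masking sigma-1 sites; 10 μM haloperidol defines non-specific binding. Filtration and scintillation counting; Ki from displacement curves.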
# [3] = tested on: Abeta oligomer-induced membrane trafficking deficits in primary hippocampal neurons; assay: Membrane Trafficking/Exocytosis (MTT) assay, Abeta oligomer effect on neurons; format: cell-based, rat; settings: membrane trafficking, read-out: EC50 Abeta;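 note: compound potency for inhibiting the Abeta oligomer effect on exocytosis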
# Outline: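 Rat E18 hippocampal neurons cultured 3 weeks received compound (100 uM to 0.001 nM), then vehicle or Abeta 1-42 oligomers (3 μM total Abeta), for 1-24 h at 37 °C. MTT was added for 1 h, and formazan vesicle exocytosis was quantified by automated imaging with DAPI toxicity check. Tukey-Kramer comparisons were made with N=4.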
# [4] = Mouse liver microsome (MLM) stability; format: in vitro ADME; settings: microsomal stability in mouse liver microsomes (MLM)
# Procedure: A first pharmacokinetic study was performed in microsomes of mice mouse liver microsomes, MLM).
# Microsomal stability experiments and plasma stability experiments were performed to determine metabolic and hepatic stability of candidate compounds.
# [5] = target: potassium channel hERG (Homo sapiens (Human), UniProt Q12809); assay: In vitro testing for hERG inhibition; format: biochemical; settings: in vitro toxicity potassium channel hERG
# potassium channel hERG, sequence (Q12809 whole entry): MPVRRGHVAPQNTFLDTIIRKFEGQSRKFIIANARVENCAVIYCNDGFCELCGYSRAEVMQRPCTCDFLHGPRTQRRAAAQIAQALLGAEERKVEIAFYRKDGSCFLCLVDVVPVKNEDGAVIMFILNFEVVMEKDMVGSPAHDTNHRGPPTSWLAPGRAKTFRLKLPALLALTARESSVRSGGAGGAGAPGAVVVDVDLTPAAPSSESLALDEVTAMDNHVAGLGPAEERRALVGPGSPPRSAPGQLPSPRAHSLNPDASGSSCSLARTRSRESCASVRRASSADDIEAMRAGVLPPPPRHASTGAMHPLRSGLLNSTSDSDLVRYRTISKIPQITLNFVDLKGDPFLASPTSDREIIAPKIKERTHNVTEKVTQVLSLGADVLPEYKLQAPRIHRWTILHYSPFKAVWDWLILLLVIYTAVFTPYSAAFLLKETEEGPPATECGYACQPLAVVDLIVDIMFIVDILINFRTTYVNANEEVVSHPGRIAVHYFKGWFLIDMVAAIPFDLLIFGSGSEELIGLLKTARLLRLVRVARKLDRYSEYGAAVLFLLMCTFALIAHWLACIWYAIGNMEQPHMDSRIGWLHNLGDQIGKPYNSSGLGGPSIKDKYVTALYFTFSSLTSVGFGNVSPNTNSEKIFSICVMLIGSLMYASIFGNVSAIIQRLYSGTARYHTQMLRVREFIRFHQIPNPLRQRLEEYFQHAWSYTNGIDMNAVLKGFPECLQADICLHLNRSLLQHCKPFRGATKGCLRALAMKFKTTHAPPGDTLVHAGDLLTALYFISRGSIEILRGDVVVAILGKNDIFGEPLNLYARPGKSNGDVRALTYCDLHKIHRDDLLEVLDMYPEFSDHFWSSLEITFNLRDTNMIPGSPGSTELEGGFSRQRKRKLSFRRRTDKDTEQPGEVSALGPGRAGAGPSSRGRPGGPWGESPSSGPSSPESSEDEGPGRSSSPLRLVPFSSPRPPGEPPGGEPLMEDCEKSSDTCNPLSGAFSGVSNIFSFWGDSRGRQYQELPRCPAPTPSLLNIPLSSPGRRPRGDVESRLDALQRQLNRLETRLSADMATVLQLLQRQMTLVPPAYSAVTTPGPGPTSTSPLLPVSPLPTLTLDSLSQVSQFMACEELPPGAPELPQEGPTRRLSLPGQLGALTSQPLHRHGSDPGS
# Procedure: In vitro testing for hERG inhibition was performed in a standard assay (See: Haverkamp W, Breithardt G, Carnm A J, Janse M J, Rosen M R, Antzelevitch C, Escande D, Franz M, Malik M, Moss A and Shah R. (2000) Eur Heat J 21 (15); 1216-31).
# [6] = log P; format: physicochemical
# Outline: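 Ratio of un-ionized compound concentrations between octanol and water, with aqueous pH set so the un-ionized form predominates. Value given as the log of the octanol/water ratio.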
# Sigma-1 receptors on Jurkat cell membranes, sequence (Q99720 whole entry): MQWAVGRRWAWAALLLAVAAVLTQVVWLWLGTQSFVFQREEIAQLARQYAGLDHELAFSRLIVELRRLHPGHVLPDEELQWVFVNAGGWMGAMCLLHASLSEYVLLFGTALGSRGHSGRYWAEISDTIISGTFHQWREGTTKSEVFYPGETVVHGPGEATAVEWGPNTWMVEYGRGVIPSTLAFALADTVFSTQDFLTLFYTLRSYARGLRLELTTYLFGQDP
Compound,Ki [1],Ki [2],MLM T1/2 [4],log P [6],half-life ([4]; read-out: MLM T1/2),logP ([6]; octanol/water),EC50 [3],IC50 [5],"EC50 ([3]; Rattus norvegicus, Hippocampal neuron)"
CC(C)=CC(CC(C)(C)c1ccc(Cl)cc1)N1CCC(CCO)CC1 (stereo not drawn) [Compound 53],74 nM,110 nM,28 min,5.41,–,–,20000 nM,13300 nM,–
CC(C)=CC(CC(C)(C)c1ccc(C(F)(F)F)cc1)N1CCCCC1 (stereo not drawn) [Compound 61],160 nM,230 nM,53 min,6.38,–,–,4700 nM,7300 nM,–
CC(C)=CC(CC(C)(C)c1ccc(F)cc1)N1CCC(C)(O)CC1 (stereo not drawn) [Compound 62],130 nM,230 nM,60 min,4.4,–,–,800 nM,41000 nM,–
CC(C)=CC(CC(C)(C)c1ccc(F)cc1)N1CCCCC1 (stereo not drawn) [Compound 68],500 nM,300 nM,11 min,5.65,–,–,20000 nM,27000 nM,–
CC(C)=CC(CC(C)(C)c1ccc(C(F)(F)F)cc1)N1CCOCC1 (stereo not drawn) [Compound 72],770 nM,400 nM,2.1 min,5.32,–,–,20000 nM,80000 nM,–
CC(C)=CC(CC(C)(C)c1ccc(Cl)cc1)N1CCC(O)CC1 (stereo not drawn) [Compound 77],540 nM,800 nM,44 min,4.58,–,–,20000 nM,15200 nM,–
CC(C)=CC(CC(C)(C)c1ccc(F)cc1)N1CCC(O)CC1 (stereo not drawn) [Compound 79],1200 nM,940 nM,74 min,4.12,–,–,1900 nM,29000 nM,–
CC(C)=CC(CC(C)(C)c1ccc(S(C)(=O)=O)cc1)N1CCC2(CCOCC2)CC1 (stereo not drawn) [Compound 82],380 nM,2800 nM,60 min,4.11,–,–,20000 nM,100000 nM,–

# Now those with a lower Ki [1], led by results:
Ki [1],Ki [2],MLM T1/2 [4],log P [6],half-life ([4]; read-out: MLM T1/2),logP ([6]; octanol/water),Compound,EC50 [3],IC50 [5],"EC50 ([3]; Rattus norvegicus, Hippocampal neuron)"
16 nM,67 nM,35 min,5.87,–,–,CC(C)=CC(CC(C)(C)c1ccc(Cl)cc1)N1CCC2(CCOCC2)CC1 (stereo not drawn) [Compound 41],1600 nM,4000 nM,–
61 nM,74 nM,29 min,6.37,–,–,CC(C)=CC(CC(C)(C)c1ccc(Cl)cc1)N1CCC(C2CCN(C)CC2)CC1 (stereo not drawn) [Compound 43],300 nM,4900 nM,–
25 nM,120 nM,3.6 min,5.47,–,–,CC(C)=CC(CC(C)(C)c1ccc(Cl)cc1)N1CCC(F)CC1 (stereo not drawn) [Compound 55],2500 nM,7200 nM,–
64 nM,160 nM,39 min,4.94,–,–,CC(C)=CC(CC(C)(C)c1ccc(F)cc1)N1CCC(CCO)CC1 (stereo not drawn) [Compound 58],500 nM,14000 nM,–
33 nM,340 nM,14 min,6.95,–,–,CC(C)=CC(CC(C)(C)c1ccc(C(F)(F)F)cc1)N1CCC(C(F)(F)F)CC1 (stereo not drawn) [Compound 70],20000 nM,16300 nM,–
29 nM,410 nM,87 min,4.86,–,–,CC(C)=CC(CC(C)(C)c1ccc(Cl)cc1)N1CCC(C)(O)CC1 (stereo not drawn) [Compound 73],700 nM,24000 nM,–
13 nM,1.8 nM,–,–,114 min,6.58,CC(C)=CC(CC(C)(C)c1ccc(C(F)(F)F)cc1)N1CCC(C2CCOCC2)CC1 (stereo not drawn) [Example 9],–,1000 nM,500 nM

# — patent US11214540B2, “Compositions for treating neurodegenerative diseases” (COGNITION THERAPEUTICS, INC., priority 2017, dated 2022)
